Measured values as given in US8349844B2, “Substituted pyrazolo [1,5-A] pyrimidines as metabotropic glutamate antagonists” (Hoffmann-La Roche Inc., priority 2005, dated 2013).

Tests used:
rat mGlu2 receptor = molecular target: T1, rat mGlu2 receptor (Rattus norvegicus, UniProt P31421); experiment: [3H]-LY354740 binding on mGlu2 transfected CHO cell membranes; settings: [3H]-LY354740 (10 nM) displacement
T1 construct: expressed in transfected cells; membranes prepared from them
Source text: [^3H]-LY354740 Binding on mGlu2 Transfected CHO Cell Membranes. Transfection and Cell Culture
cDNA encoding the rat mGlu2 receptor protein in pBluescript II was subcloned into the eukaryotic expression vector pcDNA I-amp from Invitrogen Ltd (Paisley, UK). This vector construct (pcD1mGR2) was co-transfected with a psvNeo plasmid encoding the gene for neomycin resistance, into CHO cells by a modified calcium phosphate method described by Chen & Okayama (1988). The cells were maintained in Dulbecco's Modified Eagle medium with reduced L-glutamine (2 mM final concentration) and 10% dialysed foetal calf serum from Gibco-Invitrogen (Carlsbad, Calif., USA). Selection was made in the presence of G-418 (1000 ug/ml final) and […]. Clones were identified by reverse transcription of 5 μg total RNA, followed by PCR using mGlu2 receptor specific primers 5′-[…]-3′ and 5′-[…]-3′ in 60 mM Tris HCl (pH 10), 15 mM (NH4)2SO4, 2 mM MgCl2, 25 units/ml Taq Polymerase with 30 cycles annealing at 60° C. for 1 min., extention at 72° C. for 30 s, and 1 min. 95° C. denaturation.
Cells, cultured as above, were harvested and washed three times with cold PBS and frozen at −80° C. The pellet was resuspended in cold 20 mM HEPES-NaOH buffer containing 10 mM EDTA (pH 7.4), and homogenised with a polytron (Kinematica, A G, Littau, Switzerland) for 10 s at 10 000 rpm. After centrifugation for 30 min. at 4° C., the pellet was washed once with the same buffer, and once with cold 20 mM HEPES-NaOH buffer containing 0.1 mM EDTA, (pH 7.4). Protein content was measured using the micro BCA method from Pierce-Perbio (Rockford, Ill., USA) using bovine serum albumin as standard.
After thawing, the membranes were resuspended in cold 50 mM Tris-HCl buffer containing 2 mM MgCl2 (pH 7) (binding buffer). The final concentration of the membranes in the assays was 25 μg protein/ml. Inhibition experiments were performed with membranes incubated with 10 nM [^3H]-LY354740 at room temperature, for 1 hour, in presence of various concentrations of the compound to be tested. Following the incubations, membranes were filtered onto Whatmann GF/B glass fiber filters and washed 5 times with cold binding buffer. Non specific binding was measured in the presence of 10 μM DCG IV. After transfer of the filters into plastic vials containing 10 ml of Ultima-gold scintillation fluid from Perkin-Elmer (Boston, Mass., USA), the radioactivity was measured by liquid scintillation in a Tri-Garb 2500 TR counter (Packard, Zürich, Switzerland).
The inhibition curves were fitted with a four parameter logistic equation giving IC50 values, and Hill coefficients.

T1 sequence (P31421 19-872): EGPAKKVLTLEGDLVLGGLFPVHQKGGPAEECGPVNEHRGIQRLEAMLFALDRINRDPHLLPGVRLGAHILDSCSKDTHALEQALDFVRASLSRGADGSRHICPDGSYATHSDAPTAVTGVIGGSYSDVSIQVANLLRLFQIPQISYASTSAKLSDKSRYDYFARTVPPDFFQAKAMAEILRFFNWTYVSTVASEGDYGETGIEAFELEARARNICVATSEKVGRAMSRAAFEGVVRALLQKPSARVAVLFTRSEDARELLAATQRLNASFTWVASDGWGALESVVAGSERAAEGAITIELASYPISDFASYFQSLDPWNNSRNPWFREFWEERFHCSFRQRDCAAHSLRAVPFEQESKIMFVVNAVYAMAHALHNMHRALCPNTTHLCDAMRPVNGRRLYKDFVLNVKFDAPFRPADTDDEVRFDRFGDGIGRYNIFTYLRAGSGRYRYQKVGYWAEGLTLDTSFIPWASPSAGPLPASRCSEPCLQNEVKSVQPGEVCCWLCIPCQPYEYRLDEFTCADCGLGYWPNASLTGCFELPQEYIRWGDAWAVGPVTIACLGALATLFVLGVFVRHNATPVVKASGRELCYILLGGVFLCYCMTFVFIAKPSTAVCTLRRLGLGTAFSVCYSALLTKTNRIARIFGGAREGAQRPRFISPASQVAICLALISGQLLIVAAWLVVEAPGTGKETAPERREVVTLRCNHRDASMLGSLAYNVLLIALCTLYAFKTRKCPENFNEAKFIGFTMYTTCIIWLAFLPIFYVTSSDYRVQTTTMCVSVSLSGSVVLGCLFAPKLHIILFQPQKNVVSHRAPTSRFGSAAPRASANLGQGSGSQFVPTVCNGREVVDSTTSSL

| Compound | Ki (rat mGlu2 receptor) [nM] | melting point [°C] |
| --- | --- | --- |
| NS(=O)(=O)c1ccc(-c2noc(-c3cnn4c(C(F)(F)F)cc(-c5ccc(C(F)(F)F)cc5)nc34)n2)cc1 [Example 1, 4-{5-[7-Trifluoromethyl-5-(4-trifluoromethyl-phenyl)-pyrazolo[1,5-a]pyrimidin-3-yl]-[1,2,4]oxadiazol-3-yl}-benzenesulfonamide] | 5.6 | 275 |
| FC(F)(F)c1ccc(-c2cc(C(F)(F)F)n3ncc(-c4nc(-c5cccnc5)no4)c3n2)cc1 [Example 3, 3-(3-Pyridin-3-yl-[1,2,4]oxadiazol-5-yl)-7-trifluoromethyl-5-(4-trifluoromethyl-phenyl)-pyrazolo[1,5-a]pyrimidine] | 48.1 | 199 |
| NS(=O)(=O)c1cccc(-c2noc(-c3cnc4c(C(F)(F)F)cc(-c5ccc(C(F)(F)F)cc5)cn34)n2)c1 [Example 11, 3-{5-[8-Trifluoromethyl-6-(4-trifluoromethyl-phenyl)-imidazo[1,2-a]pyridin-3-yl]-[1,2,4]oxadiazol-3-yl}-benzenesulfonamide] | 8.8 | 297 |
| NS(=O)(=O)c1ccc(-c2noc(-c3cnn4c(C5CC5)cc(-c5ccc(Cl)cc5)nc34)n2)s1 [Example 20, 5-{5-[5-(4-Chloro-phenyl)-7-cydopropyl-pyrazolo[1,5-a]pyrimidin-3-yl]-[1,2,4]oxadiazol-3-yl}-thiophene-2-sulfonic acid amide] | 16.1 | 294 |
| NS(=O)(=O)c1ccc(-c2nc(-c3ncn4c(C(F)(F)F)cc(-c5ccc(C(F)(F)F)cc5)nc34)no2)cc1 [Example 21, 4-{3-[4-Trifluoromethyl-2-(4-trifluoromethyl-phenyl)-imidazo[1,5-a]pyrimidin-8-yl]-[1,2,4]oxadiazol-5-yl}-benzenesulfonamide] | 10.2 | 303 |
| Nc1ccc(-c2noc(-c3cnn4c(C(F)(F)F)cc(-c5cccc(C(F)(F)F)c5)nc34)n2)cn1 [Example 34, 5-{5-[7-Trifluoromethyl-5-(3-trifluoromethyl-phenyl)-pyrazolo[1,5-a]pyrimidin-3-yl]-[1,2,4]oxadiazol-3-yl}-pyridin-2-ylamine] | 51 | 264 |
| Cc1cc(-c2ccc(Cl)cc2)cn2c(-c3nc(-c4ccc(S(N)(=O)=O)s4)no3)cnc12 [Example 41, 5-{5-[6-(4-Chloro-phenyl)-8-methyl-imidazo[1,2-a]pyridin-3-yl]-[1,2,4]oxadiazol-3-yl}-thiophene-2-sulfonic acid amide] | 21.3 | 271 |
| NS(=O)(=O)c1ccc(-c2noc(-c3ncn4c(C(F)(F)F)cc(-c5ccc(C(F)(F)F)cc5)nc34)n2)s1 [Example 42, 5-{5-[4-Trifluoromethyl-2-(4-trifluoromethyl-phenyl)-imidazo[1,5-a]pyrimidin-8-yl]-[1,2,4]oxadiazol-3-yl}-thiophene-2-sulfonic acid amide] | 14.6 | 295 |
| Nc1ncc(-c2noc(-c3cnn4c(C(F)(F)F)cc(-c5ccc(C(F)(F)F)cc5)nc34)n2)cn1 [Example 46, 5-{5-[7-Trifluoromethyl-5-(4-trifluoromethyl-phenyl)-pyrazolo[1,5-a]pyrimidin-3-yl]-[1,2,4]oxadiazol-3-yl}-pyrimidin-2-ylamine] | 14.5 | 254 |
| Cc1cc(-c2ccc(C(F)(F)F)cc2)cn2c(-c3nc(-c4ccc(N)nc4)no3)cnc12 [Example 47, 5-{5-[8-Methyl-6-(4-trifluoromethyl-phenyl)-imidazo[1,2-a]pyridin-3-yl]-[1,2,4]oxadiazol-3-yl}-pyridin-2-ylamine] | 7.7 | 257 |
| Cc1cc(-c2ccc(C(F)(F)F)cc2)cn2c(-c3nc(-c4cnc(N)nc4)no3)cnc12 [Example 48, 5-{5-[8-Methyl-6-(4-trifluoromethyl-phenyl)-imidazo[1,2-a]pyridin-3-yl]-[1,2,4]oxadiazol-3-yl}-pyrimidin-2-ylamine] | 6.5 | 302 |
| Cc1cc(-c2cc(C(F)F)n3ncc(-c4nc(-c5ccc(N)nc5)no4)c3n2)ccc1Cl [Example 77, 5-{5-[5-(4-Chloro-3-methyl-phenyl)-7-difluoromethyl-pyrazolo[1,5-a]pyrimidin-3-yl]-[1,2,4]oxadiazol-3-yl}-pyridin-2-ylamine] | 25.5 | 243 |
| Nc1ncc(-c2noc(-c3cnn4c(C(F)(F)F)cc(-c5ccc(Cl)c(Cl)c5)nc34)n2)cn1 [Example 81, 5-{5-[5-(3,4-Dichloro-phenyl)-7-trifluoromethyl-pyrazolo[1,5-a]pyrimidin-3-yl]-[1,2,4]oxadiazol-3-yl}-pyrimidin-2-ylamine] | – | 300 |
| Nc1ncc(-c2noc(-c3cnn4c(C(F)(F)F)cc(-c5ccc(Cl)cc5)nc34)n2)cn1 [Example 82, 5-{5-[5-(4-Chloro-phenyl)-7-trifluoromethyl-pyrazolo[1,5-a]pyrimidin-3-yl]-[1,2,4]oxadiazol-3-yl}-pyrimidin-2-ylamine] | – | 268 |
| Cc1cc(-c2cc(C(F)(F)F)n3ncc(-c4nc(-c5cnc(N)nc5)no4)c3n2)ccc1C(F)(F)F [Example 83, 5-{5-[5-(3-Methyl-4-trifluoromethyl-phenyl)-7-trifluoromethyl-pyrazolo[1,5-a]pyrimidin-3-yl]-[1,2,4]oxadiazol-3-yl}-pyrimidin-2-ylamine] | – | 272 |
| Cc1cc(-c2cc(C(F)(F)F)n3ncc(-c4nc(-c5cnc(N)nc5)no4)c3n2)ccc1Cl [Example 84, 5-{5-[5-(4-Chloro-3-methyl-phenyl)-7-trifluoromethyl-pyrazolo[1,5-a]pyrimidin-3-yl]-[1,2,4]oxadiazol-3-yl}-pyrimidin-2-ylamine] | – | 272 |
| Nc1cc(-c2noc(-c3cnn4c(C(F)(F)F)cc(-c5ccc(Cl)cc5)nc34)n2)ccn1 [Example 85, 4-{5-[5-(4-Chloro-phenyl)-7-trifluoromethyl-pyrazolo[1,5-a]pyrimidin-3-yl]-[1,2,4]oxadiazol-3-yl}-pyridin-2-ylamine] | – | 252 |
| Nc1cc(-c2noc(-c3cnn4c(C(F)(F)F)cc(-c5ccc(Cl)c(Cl)c5)nc34)n2)ccn1 [Example 86, 4-{5-[5-(3,4-Dichloro-phenyl)-7-trifluoromethyl-pyrazolo[1,5-a]pyrimidin-3-yl]-[1,2,4]oxadiazol-3-yl}-pyridin-2-ylamine] | – | 262 |
| Cc1cc(-c2cc(C(F)(F)F)n3ncc(-c4nc(-c5ccnc(N)c5)no4)c3n2)ccc1C(F)(F)F [Example 87, 4-{5-[5-(3-Methyl-4-trifluoromethyl-phenyl)-7-trifluoromethyl-pyrazolo[1,5-a]pyrimidin-3-yl]-[1,2,4]oxadiazol-3-yl}-pyridine-2-ylamine] | – | 245 |
